# Results taken from patent EP0399814A2, “Phenol derivatives for promoting human nerve growth factor” (Sankyo Company Limited, priority 1989, dated 1990).
# System: L-M cells
# Assay: NGF production and secretion by L-M cells (Furukawa method), NGF level in medium determined by enzyme immunoassay
# Assay type: cell-based, mouse
# Details: L-M cells cultured 24 hours, NGF amount relative to cells not treated with test compound; for activity at 20 µg/mL / activity at 10 µg/mL: Mus musculus, read-out: % Control; for activity at 20 µg/mL: known compounds at 20 γ/ml; for % Control / activity at 10 µg/mL: compounds of the invention at 10 γ/ml
# Description: Furukawa et al. reported that L-M cells of a fibroblast cell line from mouse connective tissue can produce and secrete a relatively large amount of NGF, and that catecholamines accelerate such production and secretion of NGF (J. Biol. Chem., 261, 6039-6047, 1986). Following the test method described in this Furukawa paper, but using the compounds of the invention and recognized NGF promoters epinephrine, isoproterenol, L-DOPA, and caffeic acid, NGF production and secretion activities were examined. The test compounds of this invention were employed at 10 γ/ml, and the known compounds were employed at 20 γ/ml.
# Culture medium 199 containing 0.5% peptone was used for culturing L-M cells (for the culture medium 199, see, for instance, Morgan et al., Proc. Soc. Exp. Biol. Med., 73, 1 (1950) or Morgan et al. J. Natl. Cancer Inst., 16, 557 (1955). About 5 x 10⁴ of L-M cells were placed in each well of a culture plate with 24 wells, and cultured using a CO₂ incubator (37°C, 5% CO₂) until confluence. After removing the culture medium, the cultured cells were washed once with 199 culture medium containing 0.5% bovine serum albumin (Fraction V, Sigma). The test compounds were added to a specified concentration to a 199 culture medium containing 0.5% bovine serum albumin, and treated with 0.5 ml of L-M cells. After culturing the L-M cells in a CO₂ incubator for 24 hours, the medium was recovered and the NGF level was determined.
# NGF was determined using an enzyme immunoassay (Korshing and Thoenen, Proc. Natl. Acad. Sci. USA, 80, 3513-3516, 1983). A solution (each 75 µl) of anti-mouse β-NGF antibody (0.3 µg/ml, pH 9.6; Boehringer Mannheim) was pipetted into each well of a polystyrene plate with 96 wells. After allowing the plate to stand at room temperature for an hour, the antibody was removed by washing three times with detergent solution. A solution (50 µl) of standard β-NGF (Wako Pure Chemical Industries Ltd.) or the recovered medium (50 µl) for each of the test compounds was pipetted into each well. After allowing the plate to stand at room temperature for 6 - 8 hours, the standard β-NGF or test solution was removed and each well was washed three times. A solution (50 µl) of β-NGF monoclonal antibody (100 mU/ml, pH 7.0; Boehringer Mannheim) labelled with β-galactosidase was pipetted into each well. After allowing the plate to stand at 4°C for 15 - 18 hours, enzyme labelled antibody was removed and the wells washed three times followed by pipetting a solution (100 µl) of chlorophenol red-β-D-galactopyranoside (1 mg/ml, pH 7.3; Boehringer Mannheim) into each well. Colour was allowed to develop (2 - 3 hours at room temperature), and the absorbance was determined at 570 nm. The amount of NGF was calculated from a standard curve. The results are expressed as a relative value (%) which is relative to the amount of NGF produced and secreted by cells treated not with the test compounds. The numerical values (% control) are expressed by the mean value in the 3 wells of the control (without addition of the test compounds).
Compound,activity at 20 µg/mL [%],activity at 10 µg/mL [%],also measured
"CC(C)NCC(O)c1ccc(O)c(O)c1 (centres unmarked) [isoproterenol, reference compound]",168 ± 22,,
"CC(=O)Oc1ccc(CCCC(=O)NC23CC4CC(CC(C4)C2)C3)cc1OC(C)=O [Example 46, N-(1-adamantyl)-3,4-diacetoxyphenylbutyrylamide]",,,% Control: 939%
"CC(=O)Oc1cc2c(cc1OC(C)=O)CCC(C(=O)NC13CC4CC(CC(C4)C1)C3)=C2 [Example 96, N-(1-adamantyl)-6,7-diacetoxy-3,4-dihydro-2-naphthamide]",,558,
"CNC[C@H](O)c1ccc(O)c(O)c1 [epinephrine, reference compound]",140 ± 24,,
"N[C@@H](Cc1ccc(O)c(O)c1)C(=O)O [L-DOPA, reference compound]",117 ± 7,,
"CC(=O)Oc1cc2c(cc1OC(C)=O)CCC(C(=O)Nc1cnc3ccccc3c1)=C2 [Example 95, N-(3-quinolyl)-6,7-diacetoxy-3,4-dihydro-2-naphthamide]",,341,
"O=C(O)/C=C/c1ccc(O)c(O)c1 [caffeic Acid, caffeic acid, reference compound]",123 ± 14,,
"CC(=O)Oc1cc2c(cc1OC(C)=O)CCC(C(=O)Nc1ccc(Cl)cc1Cl)=C2 [Example 94, N-(2,4-dichlorophenyl)-6,7-diacetoxy-3,4-dihydro-2-naphthamide]",,459,
"CC(=O)Oc1ccc(CCC(=O)Nc2cc(Cl)ccc2Cl)cc1OC(C)=O [Example 1, N-(2,5-dichlorophenyl)-3,4-diacetoxyphenylpropionamide]",,,% Control: 201%
"CC(=O)Oc1cc2c(cc1OC(C)=O)CC(C(=O)NC13CC4CC(CC(C4)C1)C3)CC2 (centres unmarked) [Example 93, N-(1-adamantyl)-6,7-diacetoxy-1,2,3,4-tetrahydro-2-naphthamide]",,941,
"CC(=O)Oc1cc2c(cc1OC(C)=O)CC(C(=O)Nc1ccc(Cl)cc1Cl)CC2 (centres unmarked) [Example 91, N-(2,4-dichlorophenyl)-6,7-diacetoxy-1,2,3,4-tetrahydro-2-naphthamide]",,575,
